Read-outs that look alike come from different tables or passages of the source.
Experiment: Chelator-induced uranium excretion (urine + bile, 24 h) in bile duct-cannulated rat model
Format: in vivo
Details: for response vs control in vivo at 300 µmol/kg / response vs control in vivo at 600 µmol/kg: Rattus norvegicus, 24 h, read-out: Chelator-Induced U Excretion/Control; for uranium clearance, in words: given IP immediately post uranyl acetate, doses per Table 1
Method: Desferrithiocin Analogue Induced Excretion of Uranium. In order to compare results with previous chelator-induced iron excretion data, the uranium clearance studies were carried out in a bile duct-cannulated rat model. The animals were given uranyl acetate dihydrate SC at a dose of 5 mg/kg (the actual dose of uranium is 2.8 mg/kg). Bile and urine samples were collected for 24 hours after dosing. Kidneys were removed from selected animals and tissue uranium concentration measured. At least three animals were utilized in each experimental group. Data from two separate control studies (uranyl acetate/ no chelator) have now been combined for a total of 14 control animals. All uranium concentrations were measured using ICPMS. The data are reported as the total quantity of uranium excreted [urine +bile]; the mode of excretion [urine/bile] is also given. In addition the percentage of the administered dose of uranium cleared and chelator-induced uranium excretion vs the controls is also given. Four positive controls were evaluated: DTPA (13, Table 1) given as its trisodium calcium salt, DFO (14), N,N′-bis(2hydroxybenzyl)ethylenediamine-N,N′-diacetic acid, monosodium salt (NaHBED, 15) and the hydroxypyridone CP94 (16) shown to bind uranium [Pashalidis, et al., Effective complex formation in the interaction of 1,2-dimethyl-3-hydroxypyrid-4-one (Deferiprone or L1) with uranium(VI), Journal of Radioanalytical and Nuclear Chemistry 1999; 242:181-184.] The total metal cleared after 24 h in control rats was 10% of the administered dose. When DTPA, 13, was given IP or PO at 300 μmol/kg immediately after uranium, the excretion was 17% and 8% of the administered dose respectively (p>0.05). However, when the drug was given IP at a dose of 600 μmol/kg immediately post-metal, the uranium excretion was significant, 20% (p<0.005). This is consistent with previously published data using a similar animal model.[Domingo, et al., Comparative effects of the chelators sodium 4,5-dihydroxybenzene-1,3-disulfonate (Tiron) and diethylenetriaminepentaacetic acid (DTPA) on acute uranium nephrotoxicity in rats, Toxicology 1997; 118:49-59] DFO (14) and CP94 (16) given IP immediately post uranyl acetate were ineffective.
Desferrithiocin Analogue-Induced Excretion of Uranium. In order to compare results with previous chelator-induced iron excretion data, the uranium clearance studies were carried out in a bile duct-cannulated rat model. The animals were given uranyl acetate dihydrate SC at a dose of 5 mg/kg (the actual dose of uranium is 2.8 mg/kg). Bile and urine samples were collected for 24 hours after dosing. Kidneys were removed from selected animals and tissue uranium concentration measured. At least three animals were utilized in each experimental group. Data from two separate control studies (uranyl acetate/ no chelator) are combined for a total of 14 control animals. All uranium concentrations were measured using ICPMS. The data are reported as the total quantity of uranium excreted [urine +bile]; the mode of excretion [urine/bile] is also given. In addition the percentage of the administered dose of uranium cleared and chelator-induced uranium excretion vs the controls is also given. Four positive controls were evaluated: DTPA (1, Table 1) given as its trisodium calcium salt, DFO (2), N,N -bis(2-hydroxybenzyl)ethylenediamine-N,N-diacetic acid, monosodium salt (NaHBED, 3) and the hydroxypyridone CP94 (4) shown to bind uranium. The total metal cleared after 24 h in control rats was 10% of the administered dose. When DTPA, 1, was given IP or PO at 300 μmol/kg immediately after uranium, the excretion was 17% and 8% of the administered dose respectively (p>0.05). However, when the drug was given IP at a dose of 600 μmol/kg immediately post metal, the uranium excretion was significant, 20% (p<0.005). This is consistent with previously published data using a similar animal model.^2 DFO (2) and CP94 (4) given IP immediately post uranyl acetate were ineffective.

SMILES: CC(=O)N(O)CCCNC(=O)CCC(=O)N(O)CCCCCNC(=O)CCC(=O)N(O)CCCN
- % of Administered Dose Cleared (300 μmol/kg IP Immediate): 16%
- Uranium Excretion (300 μmol/kg IP Immediate): 438 ± 191 µg/kg
- Uranium Excretion [urine/bite] (300 μmol/kg IP Immediate): 100/0
- response vs control in vivo at 300 µmol/kg (ip, 300 μmol/kg IP Immediate): 160%

SMILES: COCCOCCOCCOc1ccc(C2=N[C@](C)(C(=O)O)CS2)c(O)c1
- % of Administered Dose Cleared (300 μmol/kg IP Immediate): 22%
- Uranium Excretion (300 μmol/kg IP Immediate): 626 ± 123 µg/kg
- Uranium Excretion [urine/bite] (300 μmol/kg IP Immediate): 35/65
- response vs control in vivo at 300 µmol/kg (ip, 300 μmol/kg IP Immediate): 220%

SMILES: COc1ccc(C2=N[C@H](C(=O)O)CS2)c(O)c1
- % of Administered Dose Cleared (300 μmol/kg IP 0.5 h Post): 33%
- Uranium Excretion (300 μmol/kg IP 0.5 h Post): 917 ± 177 µg/kg
- Uranium Excretion [urine/bite] (300 μmol/kg IP 0.5 h Post): 16/84
- % of Administered Dose Cleared (300 μmol/kg IP 0.5 h Pre): 29%
- Uranium Excretion (300 μmol/kg IP 0.5 h Pre): 815 ± 211 µg/kg
- Uranium Excretion [urine/bite] (300 μmol/kg IP 0.5 h Pre): 48/52
- % of Administered Dose Cleared (300 μmol/kg IP 2 h Post): 30%
- Uranium Excretion (300 μmol/kg IP 2 h Post): 847 ± 335 µg/kg
- Uranium Excretion [urine/bite] (300 μmol/kg IP 2 h Post): 46/54
- % of Administered Dose Cleared (300 μmol/kg IP 4 h Post): 16%
- Uranium Excretion (300 μmol/kg IP 4 h Post): 444 ± 119 µg/kg
- Uranium Excretion [urine/bite] (300 μmol/kg IP 4 h Post): 66/34
- % of Administered Dose Cleared (300 μmol/kg IP Immediate): 30%
- Uranium Excretion (300 μmol/kg IP Immediate): 838 ± 166 µg/kg
- Uranium Excretion [urine/bite] (300 μmol/kg IP Immediate): 64/36
- % of Administered Dose Cleared (300 μmol/kg PO 2 h Post): 18%
- Uranium Excretion (300 μmol/kg PO 2 h Post): 507 ± 182 µg/kg
- Uranium Excretion [urine/bite] (300 μmol/kg PO 2 h Post): 53/47
- % of Administered Dose Cleared (300 μmol/kg PO Immediate): 23%
- Uranium Excretion (300 μmol/kg PO Immediate): 642 ± 101 µg/kg
- Uranium Excretion [urine/bite] (300 μmol/kg PO Immediate): 43/57
- % of Administered Dose Cleared (300 μmol/kg SC Immediate): 40%
- Uranium Excretion (300 μmol/kg SC Immediate): 1130 ± 246 µg/kg
- Uranium Excretion [urine/bite] (300 μmol/kg SC Immediate): 13/87
- % of Administered Dose Cleared (600 μmol/kg PO 0.5 h Post): 25%
- Uranium Excretion (600 μmol/kg PO 0.5 h Post): 698 ± 166 µg/kg
- Uranium Excretion [urine/bite] (600 μmol/kg PO 0.5 h Post): 24/76
- % of Administered Dose Cleared (600 μmol/kg PO 1 h Post): 26%
- Uranium Excretion (600 μmol/kg PO 1 h Post): 723 ± 126 µg/kg
- Uranium Excretion [urine/bite] (600 μmol/kg PO 1 h Post): 28/72
- response vs control in vivo at 300 µmol/kg (ip, 300 μmol/kg IP 0.5 h Post): 330%
- response vs control in vivo at 300 µmol/kg (ip, 300 μmol/kg IP 0.5 h Pre): 290%
- response vs control in vivo at 300 µmol/kg (ip, 300 μmol/kg IP 2 h Post): 300%
- response vs control in vivo at 300 µmol/kg (ip, 300 μmol/kg IP 4 h Post): 160%
- response vs control in vivo at 300 µmol/kg (ip, 300 μmol/kg IP Immediate): 300%
- response vs control in vivo at 300 µmol/kg (po, 300 μmol/kg PO 2 h Post): 180%
- response vs control in vivo at 300 µmol/kg (po, 300 μmol/kg PO Immediate): 230%
- response vs control in vivo at 600 µmol/kg (po, 600 μmol/kg PO 0.5 h Post): 250%
- response vs control in vivo at 600 µmol/kg (po, 600 μmol/kg PO 1 h Post): 260%
- response vs control in vivo at 300 µmol/kg (sc, 300 μmol/kg SC Immediate): 400%

SMILES: COc1ccc(C2=N[C@](C)(C(=O)O)CS2)c(O)c1
- % of Administered Dose Cleared (300 μmol/kg IP 0.5 h Post): 15%
- Uranium Excretion (300 μmol/kg IP 0.5 h Post): 413 ± 148 µg/kg
- Uranium Excretion [urine/bite] (300 μmol/kg IP 0.5 h Post): 37/63
- % of Administered Dose Cleared (300 μmol/kg IP Immediate): 20%
- Uranium Excretion (300 μmol/kg IP Immediate): 568 ± 133 µg/kg
- Uranium Excretion [urine/bite] (300 μmol/kg IP Immediate): 59/41
- response vs control in vivo at 300 µmol/kg (ip, 300 μmol/kg IP 0.5 h Post): 150%
- response vs control in vivo at 300 µmol/kg (ip, 300 μmol/kg IP Immediate): 200%

SMILES: CC1(C)SC(c2ccccc2O)=NC1C(=O)O (stereo in doubt) [Compound 17, (S)-4,5-dihydro-5,5-dimethyl-2-(2-hydroxyphenyl)-4-thiazolecarboxylic acid]
- % of Administered Dose Cleared (300 μmol/kg IP Immediate): 26%
- uranium excretion, in words (IP 300 μmol/kg, given 0.5 h post metal): insignificant

SMILES: CCC1=C(O)C(=O)CCN1CC [CP94, reference compound]
- uranium clearance, in words: ineffective

SMILES: O=C([O-])CN(CCN(CC(=O)O)Cc1ccccc1O)Cc1ccccc1O.[Na+] [NaHBED, N,N′-bis(2hydroxybenzyl)ethylenediamine-N,N′-diacetic acid, monosodium salt, reference compound]
- uranium clearance, in words: marginally improved clearance

SMILES: O=C(O)CN(CCN(CC(=O)O)CC(=O)O)CCN(CC(=O)O)CC(=O)O [drawing 4]
- % of Administered Dose Cleared (300 μmol/kg IP Immediate): 17%
- Uranium Excretion (300 μmol/kg IP Immediate): 469 ± 271 µg/kg
- Uranium Excretion [urine/bite] (300 μmol/kg IP Immediate): 99/1
- % of Administered Dose Cleared (300 μmol/kg PO Immediate): 6%
- Uranium Excretion (300 μmol/kg PO Immediate): 235 ± 205 µg/kg
- Uranium Excretion [urine/bite] (300 μmol/kg PO Immediate): [100/0]
- % of Administered Dose Cleared (600 μmol/kg IP Immediate): 20%
- Uranium Excretion (600 μmol/kg IP Immediate): 546 ± 147 µg/kg
- Uranium Excretion [urine/bite] (600 μmol/kg IP Immediate): [100/0]
- response vs control in vivo at 300 µmol/kg (ip, 300 μmol/kg IP Immediate): 170%
- response vs control in vivo at 600 µmol/kg (ip, 600 μmol/kg IP Immediate): 200%
- response vs control in vivo at 300 µmol/kg (po, 300 μmol/kg PO Immediate): 80%
